Measured values reported in US10203334B2, “Methods and compositions related to nucleic acid binding assays” (Nubad, LLC, priority 2012, dated 2019).

Assays:
[1] = system: 13 different nucleic acid structures; assay: Competition dialysis, whole panel; format: binding; settings: Na^+ concentration increases from 100 to 200 mM
Excerpt: Disclosed is the use of fluorescent aminosugar probes such as F-neo (42a) to probe a variety of nucleic acid targets. Competition dialysis was used as a nucleic acid screening technique to illustrate the binding of F-neo (42a) to different nucleic acid structures.
Competition dialysis studies using a fluorescein-neomycin conjugate (F-neo (42a)). […] Comparative binding of F-neo (42a) to 13 different nucleic acid structures was examined which included single strand nucleic acids [poly(dT), poly(A), poly(U)], duplexes [poly(dA).poly(dT), poly(rA).poly(dT), poly(rA).poly(rU), poly(dA).poly(rU), poly(dG).poly(dC), calf thymus], triplexes [poly(dA).2poly(dT), poly(rA).2poly(rU)], i-motif (polydC) and 16S A-site rRNA (SEQ ID No. 1). The amount of F-neo (42a) bound to each nucleic acid is shown as a bar graph in FIG. 13. Because all nucleic acids are dialyzed simultaneously in the same ligand solution, the amount of bound F-neo (42a) is directly proportional to its affinity for each nucleic acid. […] 200 μL of different nucleic acids (7.5 μM per monomeric unit of each polymer) was dialyzed for 72 h with 400 mL 100 nM ligand in 6 mM Na2HPO4, 2 mM NaH2PO4, 1 mM Na2EDTA, pH 7.0 and various Na+ concentrations as indicated.
The binding of F-neo (42a) to nucleic acids is affected by the salt concentration. […]

[2] = system: E. coli rRNA A-site oligonucleotide (SEQ ID NO. 1); assay: Fluorescence titration of F-neo with bacterial rRNA A-site oligonucleotide and titration of the complex with neomycin; format: binding; settings: 1:1 stoichiometric ratio of conjugate and A-site oligonucleotide; pH 7.0
Excerpt: This compound F-neo or 42a is a fluorescein conjugate coupled through the 5″ OH position of the ribose ring of neomycin B (H. Xi, E. Davis, N. Ranjan, L. Xue, D. Hyde-Volpe, D. P. Arya, Thermodynamics of nucleic Acid “shape readout” by an aminosugar, Biochemistry. 50 (2011) 9088-9113). E. coli rRNA Asite oligonucleotide (SEQ ID NO. 1, […]) is a synthetic RNA sequence 27 bases long designed to mimic the ribosomal A-site. The A-site oligonucleotide (SEQ ID NO. 1) is titrated into F-neo (42a) to give a concentration dependent loss of fluorescence of F-neo (42a). […]
The effect of bacterial A-site oligonucleotide (SEQ ID No. 1) on the fluorescence emission intensity of a fluorescein-neomycin conjugate (F-neo or 42a) is recorded in FIG. 2. […]
The F-neo (42a) can be competitively displaced from the A-site RNA oligonucleotide (SEQ ID No. 1) by the addition of non-fluorescent RNA binding drugs. Titrating neomycin into the F-neo (42a):A-site complex increases the fluorescence in a dose dependent manner that saturates at a 1:1 stoichiometric ratio of drug-to-complex. Additionally, a strong signal window, measured as an increase in fluorescence is present at a 3:1 molar ratio, and a maximum change in fluorescence at approximately 10:1 molar ratio. […] Fluorescence emission intensity (517 nm) of 0.3 mM A-site oligonucletide/F-neo complex solution increased with increasing concentration of neomycin. […]

d(CCCCGGGG)2 = format: physicochemical
Excerpt: (§1) The local electrostatic potential (Ψ) in the major groove is given by the following Equation 3. Ψ=−[R·T·ln 10/(NA·e)]ΔpKa Eq. (3) Where ΔpKa is the difference between the free Fluorescein-neomycin and the Fluorescein-neomycin in the presence of the electrostatic environment, R is the universal gas constant, T is the absolute temperature in kelvin, NA is the Avogadro constant, and e is the elementary charge. R=8.312 J mol−1K−1, T=298.2K, NA=6.023×10^23 and e=1.602×10^−19; Ψ is expressed in mV. Thus a shift of +1 in the value of the pKa implies an electrostatic potential of […]. […] Based on this Δpka of 0.86, the electrostatic potential of the microenvironment for the fluorescein moiety in the complex is determined to be −50.9 mV.
(§2) Determination of the pKa was done using chemometric analysis of the absorption profiles at various pH values of the covalently attached fluorescein moiety (Kubista, M., et al., (1993) Anal. Chem. 65, 994-998, Kubista, M., et al., (1995) Anal. Chim. Acta. 302, 121-125.2, 3). The pH dependent absorption profile of free fluorescein-neomycin was first analyzed to determine its pKa. […] The electrostatic potential (P) calculated from the shift in pKa, and the ITC derived binding constant (K). Electrostatic potential experiments performed in 100 mM NaCl, 10 mM SC, 0.5 mM EDTA at 25° C. ITC experiments performed in 50 mM KCl, 10 mM SC, 0.5 mM EDTA (pH 6.0) at 25° C. […] Fluorescein-neomycin concentration was 10 μM. Table 1 represents the pKa values determined from the inflection point of the pH dependent absorbance scans of free fluorescein-neomycin, fluorescein-neomycin with one molar equivalent d(CCCCGGGG)2 and d(GGGGCCCC)2. The electrostatic potential (Y) calculated from the shift in pKa, and the ITC derived binding constant (K).

d(GGGGCCCC)2 = format: physicochemical
Excerpt: as §1, §2

[3] = electrostatic potential calculated from the shift in pKa
[4] = versus free fluorescein-neomycin

## NCC1O[C@H](OC2C(O)C(OC3C(O)[C@H](N)CC(N)[C@H]3O[C@H]3OC(CN)[C@@H](O)C(O)C3N)O[C@@H]2CSCCNC(=O)CCSCC(=O)Nc2ccc(-c3c4ccc(=O)cc-4oc4cc(O)ccc34)c(C(=O)O)c2)C(N)C(O)[C@@H]1O (some centres unmarked) [F-neo (42a), Neomycin-Fluorescein Conjugate]
[1]
  decrease of amount bound for each nucleic acid structure: 4-5 times
[2]
  reduction in fluorescence emission intensity: 3 fold
d(CCCCGGGG)2; [3]
  Ψ (mV): −15.13 mV
d(CCCCGGGG)2; one molar equivalent d(CCCCGGGG)2, 100 mM NaCl, 10 mM SC, 0.5 mM EDTA at 25° C.
  pKa: 6.83
d(CCCCGGGG)2; [4]
  ΔpKa: 0.26
d(GGGGCCCC)2; [3]
  Ψ (mV): −25.61 mV
d(GGGGCCCC)2; one molar equivalent d(GGGGCCCC)2, 100 mM NaCl, 10 mM SC, 0.5 mM EDTA at 25° C.
  pKa: 7.01
d(GGGGCCCC)2; [4]
  ΔpKa: 0.44
